The nature of data set [1]: Partition coefficient (logP). Type of data set: physicochemical. The settings on record: octanol/water.
The nature of data set [2]: The pharmacokinetic parameter plasma clearance in vivo in rats. Type of data set: ADME, organism-based. The settings on record: rat, read-out: CI.
Data set [3] has as its target Vascular endothelial growth factor receptor 2 (Homo sapiens, UniProt P35968).
Description: Inhibition of Vascular endothelial growth factor receptor 2
Data set [4] addresses Vascular endothelial growth factor receptor (Homo sapiens, UniProt P17948+P35916+P35968). The settings on record: endothelial cell.
Description: Inhibition of VEGF-stimulated mitogenesis in endothelial cells
Data set [5] in a line: The pharmacokinetic parameter half-life period in vivo in rats. The settings on record: rat. It is filed as ADME, organism-based.
Data set [6] in a line: The pharmacokinetic parameter volume of distribution in vivo in rats. It is filed as ADME, organism-based. The settings on record: rat, read-out: Vdss.
The nature of data set [7]: Bioavailability in rat. It is filed as ADME, organism-based. The following applies: in vivo.

The text below walks through data of ChEMBL document CHEMBL1135002, “Optimization of a pyrazolo[1,5-a]pyrimidine class of KDR kinase inhibitors: improvements in physical properties enhance cellular activity and pharmacokinetics” (Bioorg Med Chem Lett, 2002).

Sequence of Vascular endothelial growth factor receptor 2 (P35968 whole entry): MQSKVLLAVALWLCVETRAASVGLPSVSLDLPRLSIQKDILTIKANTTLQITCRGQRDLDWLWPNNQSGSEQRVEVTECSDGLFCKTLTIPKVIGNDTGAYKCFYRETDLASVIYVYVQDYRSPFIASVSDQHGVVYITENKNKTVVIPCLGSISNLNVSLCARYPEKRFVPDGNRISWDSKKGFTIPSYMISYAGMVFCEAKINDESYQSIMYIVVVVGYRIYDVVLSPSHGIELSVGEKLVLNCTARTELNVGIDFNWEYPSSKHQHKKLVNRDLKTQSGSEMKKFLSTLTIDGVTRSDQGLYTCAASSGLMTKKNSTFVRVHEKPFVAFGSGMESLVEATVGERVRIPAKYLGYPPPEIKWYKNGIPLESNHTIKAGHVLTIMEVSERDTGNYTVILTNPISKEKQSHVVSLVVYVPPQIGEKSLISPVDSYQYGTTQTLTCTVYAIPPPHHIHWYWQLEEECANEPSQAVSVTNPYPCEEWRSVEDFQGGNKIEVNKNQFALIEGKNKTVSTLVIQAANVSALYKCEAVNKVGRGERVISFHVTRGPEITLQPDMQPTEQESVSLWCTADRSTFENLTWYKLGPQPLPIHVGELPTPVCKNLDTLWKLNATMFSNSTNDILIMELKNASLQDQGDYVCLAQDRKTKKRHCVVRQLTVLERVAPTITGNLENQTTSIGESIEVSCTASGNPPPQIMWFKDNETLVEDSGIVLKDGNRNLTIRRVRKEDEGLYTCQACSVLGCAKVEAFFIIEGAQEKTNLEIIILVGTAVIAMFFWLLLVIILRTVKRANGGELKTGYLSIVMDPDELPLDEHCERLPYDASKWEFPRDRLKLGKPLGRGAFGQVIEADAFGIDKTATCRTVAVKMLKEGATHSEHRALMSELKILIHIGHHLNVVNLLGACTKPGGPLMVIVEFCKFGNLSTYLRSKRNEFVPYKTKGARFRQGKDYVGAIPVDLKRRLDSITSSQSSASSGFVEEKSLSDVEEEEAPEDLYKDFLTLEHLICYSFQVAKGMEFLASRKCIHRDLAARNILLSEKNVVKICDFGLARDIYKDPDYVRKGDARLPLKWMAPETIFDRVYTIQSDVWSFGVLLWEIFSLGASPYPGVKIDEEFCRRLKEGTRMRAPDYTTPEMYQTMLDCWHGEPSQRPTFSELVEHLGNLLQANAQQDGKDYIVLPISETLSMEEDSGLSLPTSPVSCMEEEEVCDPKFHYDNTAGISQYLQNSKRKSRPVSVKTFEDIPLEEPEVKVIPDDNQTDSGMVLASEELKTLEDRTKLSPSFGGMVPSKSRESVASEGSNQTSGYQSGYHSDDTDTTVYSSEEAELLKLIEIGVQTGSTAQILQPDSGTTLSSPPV

As for `O=c1cc(-c2cnc3c(-c4ccccc4)cnn3c2)ccn1CCCN1CCCCC1`, in data set [1], the logP came out at 2.4.

`CN1CCN(CCCn2ccc(-c3cnc4c(-c5ccccc5)cnn4c3)cc2=O)CC1`: the logP in data set [1] turned out to be 2.

Consider `c1cncc(-c2cnn3cc(-c4ccc(OCCN5CCCCC5)cc4)cnc23)c1`, for which the clearance in data set [2] was 23 mL/min/kg. Moreover, the IC50 in data set [3] came out at 20 nM; in data set [4], 29 nM. This molecule also gave a half-life in data set [5] of 3.3 h. Also, the Vd in data set [6] was found to be 6 L/kg. The same molecule registered a bioavailability in data set [7] of 42%.

For `CN1CCN(CCCn2ccc(-c3cnc4c(-c5ccsc5)cnn4c3)cc2=O)CC1`, the logP in data set [1] is 1.6. Besides, the half-life in data set [5] is 3.4 h. Further, in data set [6], the Vd amounted to 7.9 L/kg. The molecule also had a bioavailability in data set [7] of 56%.

As for `c1cc(-c2cnn3cc(-c4ccc(OCCN5CCOCC5)cc4)cnc23)ccn1`, the IC50 in data set [4] stood at 31 nM.

`COc1ccc(-c2cnc3c(-c4ccncc4)cnn3c2)cc1` returned an IC50 in data set [4] of 150 nM.

As to `c1ccc(-c2cnn3cc(-c4ccc(OCCN5CCOCC5)cc4)cnc23)cc1`, the IC50 in data set [3] was found to be 9 nM; in data set [4], 32 nM.

With `COc1ccc(-c2cnc3c(-c4ccsc4)cnn3c2)cc1`, in data set [1], the logP is > 4.

Turning to `c1cc(-c2cnn3cc(-c4ccc(OCCN5CCCCC5)cc4)cnc23)cs1` [L-21649], the logP in data set [1] is > 4. This molecule also gave a half-life in data set [5] of 5.1 h. Further, the Vd in data set [6] worked out at 16 L/kg. Also, in data set [7], the bioavailability was 18%.
